{"source": "ChEMBL document CHEMBL4004804", "about": "“Rationally designed benzopyran fused isoxazolidines and derived β2,3,3-amino alcohols as potent analgesics: Synthesis, biological evaluation and molecular docking analysis” (Eur J Med Chem, 2017)", "key": {"Mus musculus [1]": {"tested_on": "Mus musculus", "assay": "Analgesic activity in Swiss albino mouse assessed as inhibition of formalin-induced paw flinching at 80 ug/kg administered for 30 mins followed by formalin challenge measured during 10 to 30 mins post formalin challenge", "format": "functional"}, "Mus musculus [2]": {"tested_on": "Mus musculus", "assay": "Analgesic activity in Swiss albino mouse assessed as inhibition of acetic acid-induced abdominal constriction at 80 ug/kg administered for 30 mins followed by acetic acid challenge measured after 30 mins", "format": "functional"}, "Mus musculus [3]": {"tested_on": "Mus musculus", "assay": "Analgesic activity in Swiss albino mouse assessed as inhibition of formalin-induced paw flinching at 10 mg/kg administered for 30 mins followed by formalin challenge measured during 10 to 30 mins post formalin challenge in presence of opioid receptor antagonist naloxone", "format": "functional, organism-based"}, "Mus musculus [4]": {"tested_on": "Mus musculus", "assay": "Analgesic activity in Swiss albino mouse assessed as inhibition of acetic acid-induced abdominal constriction at 10 mg/kg administered for 30 mins followed by acetic acid challenge measured after 30 mins in presence of opioid receptor antagonist naloxone", "format": "functional, organism-based"}, "THP-1 [5]": {"tested_on": "THP-1", "assay": "Cytotoxicity against human THP1 cells assessed as decrease in cell proliferation after 24 to 48 hrs by MTT assay", "format": "cell-based"}, "Mus musculus [6]": {"tested_on": "Mus musculus", "assay": "Acute toxicity in Swiss albino mouse assessed as effect on liver at 2000 mg/kg after 14 days by hematoxylin and eosin staining based assay", "format": "organism-based", "conditions": "in vivo, 336 h"}, "Mus musculus [7]": {"tested_on": "Mus musculus", "assay": "Analgesic activity in Swiss albino mouse assessed as inhibition of acetic acid-induced abdominal constriction at 10 mg/kg administered for 30 mins followed by acetic acid challenge measured after 30 mins in presence of prostaglandin analogue misoprostol", "format": "functional, organism-based"}, "THP-1 [8]": {"tested_on": "THP-1", "assay": "Antiinflammatory activity in PMA-treated human THP1 cells assessed as inhibition of LPS-induced TNF-alpha production after 24 hrs by ELISA", "format": "functional, cell-based", "conditions": "THP-1, 24 h"}, "Mus musculus [9]": {"tested_on": "Mus musculus", "assay": "Acute toxicity in Swiss albino mouse assessed as effect on myocardium at 2000 mg/kg after 14 days by hematoxylin and eosin staining based assay", "format": "organism-based", "conditions": "in vivo, 336 h"}, "THP-1 [10]": {"tested_on": "THP-1", "assay": "Antiinflammatory activity in PMA-treated human THP1 cells assessed as inhibition of LPS-induced IL-6 production after 24 hrs by ELISA", "format": "functional, cell-based", "conditions": "THP-1, 24 h"}, "Mus musculus [11]": {"tested_on": "Mus musculus", "assay": "Acute toxicity in Swiss albino mouse assessed as behavioral abnormality at 50 to 2000 mg/kg after 14 days", "format": "organism-based", "conditions": "in vivo, 336 h"}, "Mus musculus [12]": {"tested_on": "Mus musculus", "assay": "Analgesic activity in Swiss albino mouse assessed as inhibition of formalin-induced paw flinching at 10 mg/kg administered for 30 mins followed by formalin challenge measured during 10 to 30 mins post formalin challenge relative to vehicle-treated control", "format": "functional"}, "Mus musculus [13]": {"tested_on": "Mus musculus", "assay": "Analgesic activity in Swiss albino mouse assessed as inhibition of acetic acid-induced abdominal constriction at 10 mg/kg administered for 30 mins followed by acetic acid challenge measured after 30 mins relative to vehicle-treated control", "format": "functional", "conditions": "0.5 h"}, "Mus musculus [14]": {"tested_on": "Mus musculus", "assay": "Analgesic activity in Swiss albino mouse assessed as inhibition of formalin-induced paw flinching at 10 mg/kg administered for 30 mins followed by formalin challenge measured during first 5 mins post formalin challenge", "format": "functional"}, "Mus musculus [15]": {"tested_on": "Mus musculus", "assay": "Analgesic activity in Swiss albino mouse assessed as inhibition of acetic acid-induced abdominal constriction at 100 ug/kg administered for 30 mins followed by acetic acid challenge measured after 30 mins", "format": "functional"}}, "note": "Calls of active or inactive are those of the source. The calls are words filed in the database; no cut-off is given here.", "data": [{"smiles": "C=CCN1CC[C@]23c4c5ccc(O)c4O[C@H]2C(=O)CC[C@@]3(O)[C@H]1C5", "values": [{"measurement": "inhibition", "setting": "Mus musculus [1]", "value": "inactive"}, {"measurement": "inhibition", "setting": "Mus musculus [2]", "value": "inactive"}]}, {"smiles": "COc1ccc2c(c1)[C@@]1(C)[C@@H](CO2)CON1C", "values": [{"measurement": "inhibition", "setting": "Mus musculus [3]", "value": "inactive"}, {"measurement": "inhibition", "setting": "Mus musculus [4]", "value": "inactive"}, {"measurement": "IC50", "setting": "THP-1 [5]", "value": "> 100", "unit": "µM"}, {"measurement": "Activity", "setting": "Mus musculus [6]", "value": "Non-Toxic"}, {"measurement": "inhibition", "setting": "Mus musculus [7]", "value": "Active"}, {"measurement": "IC50", "setting": "THP-1 [8]", "value": 4.58, "unit": "µM"}, {"measurement": "Activity", "setting": "Mus musculus [9]", "value": "Non-Toxic"}, {"measurement": "IC50", "setting": "THP-1 [10]", "value": 1.12, "unit": "µM"}, {"measurement": "Activity", "setting": "Mus musculus [11]", "value": "Non-Toxic"}, {"measurement": "inhibition in vivo at 10 mg/kg", "setting": "Mus musculus [12]", "value": 68.3, "unit": "%"}, {"measurement": "inhibition in vivo at 10 mg/kg", "setting": "Mus musculus [13]", "value": 69.4, "unit": "%"}, {"measurement": "inhibition in vivo at 10 mg/kg", "setting": "Mus musculus [14]", "value": 62.7, "unit": "%"}]}, {"smiles": "COc1ccc2c(c1)c(CC(=O)O)c(C)n2C(=O)c1ccc(Cl)cc1", "note": "[INDOMETHACIN]", "values": [{"measurement": "inhibition in vivo at 10 mg/kg", "setting": "Mus musculus [12]", "value": 50.6, "unit": "%"}, {"measurement": "inhibition in vivo at 10 mg/kg", "setting": "Mus musculus [13]", "value": 56.7, "unit": "%"}, {"measurement": "inhibition", "setting": "Mus musculus [14]", "value": "inactive"}]}, {"smiles": "CN[C@@]1(C)c2cc(OC)ccc2OC[C@H]1CO", "values": [{"measurement": "inhibition in vivo at 10 mg/kg", "setting": "Mus musculus [13]", "value": 63.2, "unit": "%"}]}, {"smiles": "CCCC[C@](C)(O)C/C=C/[C@H]1[C@H](O)CC(=O)[C@@H]1CCCCCCC(=O)OC", "values": [{"measurement": "inhibition", "setting": "Mus musculus [15]", "value": "inactive"}]}, {"smiles": "Cc1ccc2c(c1)[C@@]1(C)[C@@H](CO2)CON1C", "values": [{"measurement": "inhibition in vivo at 10 mg/kg", "setting": "Mus musculus [13]", "value": 68.2, "unit": "%"}]}, {"smiles": "CN[C@@]1(C)c2cc(C)ccc2OC[C@H]1CO", "values": [{"measurement": "inhibition in vivo at 10 mg/kg", "setting": "Mus musculus [13]", "value": 59.3, "unit": "%"}]}]}
